# Experiments:
# Format in all cases: cell-based
# [1] = target: T1, IRAK4 (Homo sapiens, UniProt Q9NWZ3); assay: IRAK4 Degradation Assay (Karpas299, HTRF/TR-FRET); details: Karpas-299 cells; for Dmax: maximum percentage of degradation
# T1 construct: endogenous in cells; host or cells: Karpas299
# T1 sequence (Q9NWZ3 1-460): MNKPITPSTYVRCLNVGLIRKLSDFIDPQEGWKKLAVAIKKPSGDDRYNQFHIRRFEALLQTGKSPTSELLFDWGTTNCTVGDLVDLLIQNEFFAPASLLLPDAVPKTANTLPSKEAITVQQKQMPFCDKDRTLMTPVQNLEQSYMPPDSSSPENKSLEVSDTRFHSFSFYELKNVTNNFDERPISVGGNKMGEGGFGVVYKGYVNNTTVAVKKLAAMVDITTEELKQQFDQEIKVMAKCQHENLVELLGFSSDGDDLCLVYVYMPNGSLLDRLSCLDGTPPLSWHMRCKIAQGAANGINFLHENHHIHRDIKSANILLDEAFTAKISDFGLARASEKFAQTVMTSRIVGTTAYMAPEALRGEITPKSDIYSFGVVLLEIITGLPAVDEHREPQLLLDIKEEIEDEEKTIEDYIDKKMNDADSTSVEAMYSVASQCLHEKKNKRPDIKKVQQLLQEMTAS
# Outline: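 Karpas299 cells at 0.2 million per well were exposed to serially diluted compounds for 24 h or 5 h, then lysed. IRAK4 remaining in lysates was quantified by HTRF (665/620 nm) after overnight antibody incubation at room temperature. Percent degradation was fitted to a four-parameter curve to give IC50 (DC50).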
# [2] = target: T1, IRAK4; assay: IRAK4 Degradation Assay with Human Serum (Karpas299, HTRF/TR-FRET); details: Karpas-299 in human serum, 24 hrs treatment; for DC50: read-out: IRAK4 degradtion with human serum assay DC50; for Dmax: read-out: IRAK4 degradtion with human serum assay Dmax (%)
# Outline: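 Karpas299 cells in human AB serum (0.2 million/well) treated with serial compound dilutions for 24 h. After lysis, IRAK4 quantified by HTRF (overnight antibody incubation at room temperature, 665/620 nm read). Degradation percentage fitted to four-parameter curve to give DC50.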
# [3] = test system: TNF-α production in THP-1 cells; assay: TNF-α Production Assay in THP-1 Cells (LPS stimulated); details: Homo sapiens, THP-1, 24 h; for Emax: maximum inhibition, read-out: TNF-α (THP-1) 24 h IMax
# Description: THP-1 cells maintained in RPMI 1640 medium (Thermo Scientific) supplemented with 10% FBS (Thermo Scientific), 100 units/mL penicillin and 0.1 mg/mL streptomycin (Thermo Scientific) were seeded into 96-well plates at the density of 0.2 million cells per well and then treated with compounds for 24 h. Lipopolysaccharide was subsequently added at the final concentration of 1 μg/mL for 24 h. Culture supernatant was collected for measurement of TNF-α concentration by a TR-FRET-based method (Degorce, François, et al. Current chemical genomics. 2009, 3: 22) as described by the manufacturer manual (Cisbio). FRET signals were measured using a PHERAstar FSX reader (BMG Labtech).
# [4] = 24 h treatment, read-out: IRAK4 in Karpas-299 (24 h) Dmax (%)
# [5] = 24 h treatment, read-out: IRAK4 in Karpas-299 (24 h) DC50
Structure (SMILES),"Dmax [1, 4] [%]","DC50 [1, 5] [nM]",DC50 [2] [nM],Dmax [2] [%],IC50 [3] [nM],"Dmax ([1]; 5 h treatment, read-out: IRAK4 in Karpas-299 (5 h) Dmax (%)) [%]","DC50 ([1]; 5 h treatment, read-out: IRAK4 in Karpas-299 (5 h) DC50) [nM]",Emax [3] [%]
"CC(C)(O)c1cc2nn([C@H]3C[C@H](N4CCN(C(=O)C5CN(c6cc(F)c([C@H]7CCC(=O)NC7=O)c(F)c6)C5)CC4)C3)cc2cc1NC(=O)c1ccc2cc(C#N)cnn12 [Example 201, 3-cyano-N-(2-((1R,3r)-3-(4-(1-(4-((R)-2,6-dioxopiperidin-3-yl)-3,5-difluorophenyl)azetidine-3-carbonyl)piperazin-1-yl)cyclobutyl)-6-(2-hydroxypropan-2-yl)-2H-indazol-5-yl)pyrrolo[1,2-b]pyridazine-7-carboxamide]",96,0.8,11,99,6.7,–,–,80
COc1cc(N2CC(C(=O)N3CCN([C@H]4CC[C@H](n5cc6cc(NC(=O)c7ccc8cc(C#N)cnn78)c(C(C)(C)O)cc6n5)CC4)CC3)C2)ccc1[C@H]1CCC(=O)NC1=O [Example 259],98,0.8,6.3,101,19,–,–,90
"CC(C)(O)c1cc2nn([C@H]3CC[C@H](N4CCN(C5CCN(c6ccc(C7CCC(=O)NC7=O)cc6)CC5)CC4)CC3)cc2cc1NC(=O)c1ccc2cc(C#N)cnn12 (some centres unmarked) [Example 195, 3-cyano-N-(2-((1r,4r)-4-(4-(1-(4-(2,6-dioxopiperidin-3-yl)phenyl)piperidin-4-yl)piperazin-1-yl)cyclohexyl)-6-(2-hydroxypropan-2-yl)-2H-indazol-5-yl)pyrrolo[1,2-b]pyridazine-7-carboxamide]",98,2.8,10,98,118,97,13,72
"CC(C)(O)c1cc2nn(C3CCN([C@H]4CCN(CCc5cc(F)c([C@H]6CCC(=O)NC6=O)c(F)c5)CC4(F)F)CC3)cc2cc1NC(=O)c1ccc2cc(C#N)cnn12 [Example 339, 3-cyano-N-(2-((S)-1′-(4-((R)-2,6-dioxopiperidin-3-yl)-3,5-difluorophenethyl)-3′,3′-difluoro-[1,4′-bipiperidin]-4-yl)-6-(2-hydroxypropan-2-yl)-2H-indazol-5-yl)pyrrolo[1,2-b]pyridazine-7-carboxamide]",95,2.5,20,99,122,–,–,67

# Molecules with a lower DC50 [1, 5], results first:
"Dmax [1, 4] [%]","DC50 [1, 5] [nM]",DC50 [2] [nM],Dmax [2] [%],IC50 [3] [nM],"Dmax ([1]; 5 h treatment, read-out: IRAK4 in Karpas-299 (5 h) Dmax (%)) [%]","DC50 ([1]; 5 h treatment, read-out: IRAK4 in Karpas-299 (5 h) DC50) [nM]",Structure (SMILES),Emax [3] [%]
100,0.7,3.2,102,42,–,–,"C[C@@H]1CN(C2CCN(c3cc(F)c([C@H]4CCC(=O)NC4=O)c(F)c3)CC2)CCN1[C@H]1CC[C@H](n2cc3cc(NC(=O)c4ccc5cc(C#N)cnn45)c(C(C)(C)O)cc3n2)CC1 [Example 301, 3-cyano-N-(2-((1R,4r)-4-((R)-4-(1-(4-((R)-2,6-dioxopiperidin-3-yl)-3,5-difluorophenyl)piperidin-4-yl)-2-methylpiperazin-1-yl)cyclohexyl)-6-(2-hydroxypropan-2-yl)-2H-indazol-5-yl)pyrrolo[1,2-b]pyridazine-7-carboxamide]",96
99,0.3,9.8,103,13,–,–,"C[C@@H]1CN(C(=O)C2CN(c3cc(F)c([C@H]4CCC(=O)NC4=O)c(F)c3)C2)CCN1[C@H]1CC[C@H](n2cc3cc(NC(=O)c4ccc5cc(C#N)cnn45)c(C(C)(C)O)cc3n2)CC1 [Example 298, 3-cyano-N-(2-((1R,4r)-4-((R)-4-(1-(4-((R)-2,6-dioxopiperidin-3-yl)-3,5-difluorophenyl)azetidine-3-carbonyl)-2-methylpiperazin-1-yl)cyclohexyl)-6-(2-hydroxypropan-2-yl)-2H-indazol-5-yl)pyrrolo[1,2-b]pyridazine-7-carboxamide]",93

# Reference: patent US20250195513A1, “DEGRADATION OF IRAK4 BY CONJUGATION OF IRAK4 INHIBITORS WITH E3 LIGASE LIGAND AND METHODS OF USE” (BeiGene, Ltd., priority 2022, published 2025)
